Data as given in ChEMBL document CHEMBL3132771, “Machine-assisted synthesis of modulators of the histone reader BRD9 using flow methods of chemistry and frontal affinity chromatography” (Medchemcomm, 2014).
The source made the active and inactive calls. The calls are words filed in the database; no cut-off is given here.

Key:
[1] = molecular target: T1, Bromodomain-containing protein 9 (Homo sapiens) (UniProt Q9H8M2); experiment: Binding affinity to human recombinant biotinylated BRD9 assessed as retention volume at 4 uM by FAC-MS analysis
T1 sequence (whole entry): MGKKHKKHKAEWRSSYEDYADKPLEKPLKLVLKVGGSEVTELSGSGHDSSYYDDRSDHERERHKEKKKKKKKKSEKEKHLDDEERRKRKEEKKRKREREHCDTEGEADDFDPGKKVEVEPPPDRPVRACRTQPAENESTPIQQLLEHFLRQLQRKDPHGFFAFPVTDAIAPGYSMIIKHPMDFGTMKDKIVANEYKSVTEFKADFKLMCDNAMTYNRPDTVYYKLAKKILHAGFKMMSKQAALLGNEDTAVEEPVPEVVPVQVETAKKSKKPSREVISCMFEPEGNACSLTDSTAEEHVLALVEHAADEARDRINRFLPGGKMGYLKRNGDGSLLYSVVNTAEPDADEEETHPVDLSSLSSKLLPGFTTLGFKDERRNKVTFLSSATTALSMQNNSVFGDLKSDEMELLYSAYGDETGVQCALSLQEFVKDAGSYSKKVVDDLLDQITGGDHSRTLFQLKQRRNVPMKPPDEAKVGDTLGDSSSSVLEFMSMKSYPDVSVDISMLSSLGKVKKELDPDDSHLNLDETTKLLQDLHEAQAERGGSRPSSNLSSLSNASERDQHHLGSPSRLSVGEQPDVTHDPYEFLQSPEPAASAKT

[2] = molecular target: T1, Bromodomain-containing protein 9 (Homo sapiens); experiment: Binding affinity to human recombinant biotinylated BRD9 at 4 uM after 120 mins by FAC-MS analysis
[3] = molecular target: T1, Bromodomain-containing protein 9 (Homo sapiens); experiment: Binding affinity to human recombinant biotinylated BRD9 assessed as retention volume at 50 uM by FAC-MS analysis
[4] = molecular target: T1, Bromodomain-containing protein 9 (Homo sapiens); experiment: Binding affinity to human recombinant biotinylated BRD9 assessed as change in melting temperature at 4 uM by thermal shift assay
[5] = molecular target: T1, Bromodomain-containing protein 9 (Homo sapiens); experiment: Binding affinity to human recombinant biotinylated BRD9 by UV spectrophotometric analysis
[6] = molecular target: Bromodomain-containing protein 4 (Homo sapiens) (UniProt O60885); experiment: Binding affinity to BRD4 (unknown origin) at 4 uM by thermal shift assay
Homo sapiens [7] = species: Homo sapiens; experiment: Binding affinity to EP300A (unknown origin) at 4 uM by thermal shift assay
Homo sapiens [8] = species: Homo sapiens; experiment: Binding affinity to BRD1A (unknown origin) at 4 uM by thermal shift assay
[9] = molecular target: T2, Bromodomain and PHD finger-containing protein 3 (Homo sapiens) (UniProt Q9ULD4); experiment: Binding affinity to BRPF3 (unknown origin) at 4 uM by thermal shift assay
T2 sequence (whole entry): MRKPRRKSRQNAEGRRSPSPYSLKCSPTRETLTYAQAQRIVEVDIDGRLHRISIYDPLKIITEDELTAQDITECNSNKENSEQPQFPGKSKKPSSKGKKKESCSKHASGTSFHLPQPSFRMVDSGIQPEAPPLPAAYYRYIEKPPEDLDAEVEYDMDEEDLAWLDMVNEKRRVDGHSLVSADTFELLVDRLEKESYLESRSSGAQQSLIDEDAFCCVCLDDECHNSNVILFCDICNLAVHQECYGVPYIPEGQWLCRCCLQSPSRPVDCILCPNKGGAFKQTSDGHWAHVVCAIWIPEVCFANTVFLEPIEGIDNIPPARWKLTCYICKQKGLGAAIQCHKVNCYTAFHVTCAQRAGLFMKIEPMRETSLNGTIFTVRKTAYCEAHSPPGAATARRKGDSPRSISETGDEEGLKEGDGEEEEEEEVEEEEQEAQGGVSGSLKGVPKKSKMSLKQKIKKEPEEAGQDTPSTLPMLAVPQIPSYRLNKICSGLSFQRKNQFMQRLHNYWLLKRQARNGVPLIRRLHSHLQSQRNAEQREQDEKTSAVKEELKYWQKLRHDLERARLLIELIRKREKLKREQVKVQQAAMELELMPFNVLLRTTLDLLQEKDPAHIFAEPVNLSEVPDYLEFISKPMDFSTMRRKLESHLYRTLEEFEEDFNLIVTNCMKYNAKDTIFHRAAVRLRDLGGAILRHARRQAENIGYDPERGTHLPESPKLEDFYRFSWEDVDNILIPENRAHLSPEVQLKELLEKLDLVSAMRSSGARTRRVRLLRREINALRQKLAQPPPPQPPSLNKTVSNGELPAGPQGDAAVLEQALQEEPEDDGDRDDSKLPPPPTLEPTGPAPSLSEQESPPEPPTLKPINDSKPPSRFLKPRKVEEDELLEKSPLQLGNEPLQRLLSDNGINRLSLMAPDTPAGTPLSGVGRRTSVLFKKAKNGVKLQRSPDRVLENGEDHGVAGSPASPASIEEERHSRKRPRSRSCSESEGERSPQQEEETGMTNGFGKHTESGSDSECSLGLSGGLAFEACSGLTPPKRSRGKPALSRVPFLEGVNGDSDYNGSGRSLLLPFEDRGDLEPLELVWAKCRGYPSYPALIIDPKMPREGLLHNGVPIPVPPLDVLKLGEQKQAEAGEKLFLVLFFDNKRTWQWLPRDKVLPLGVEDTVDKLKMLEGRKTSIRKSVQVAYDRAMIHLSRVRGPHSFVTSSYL

[10] = molecular target: T3, Transcription intermediary factor 1-alpha (Homo sapiens) (UniProt O15164); experiment: Binding affinity to TIF1 (unknown origin) at 4 uM by thermal shift assay
T3 sequence (whole entry): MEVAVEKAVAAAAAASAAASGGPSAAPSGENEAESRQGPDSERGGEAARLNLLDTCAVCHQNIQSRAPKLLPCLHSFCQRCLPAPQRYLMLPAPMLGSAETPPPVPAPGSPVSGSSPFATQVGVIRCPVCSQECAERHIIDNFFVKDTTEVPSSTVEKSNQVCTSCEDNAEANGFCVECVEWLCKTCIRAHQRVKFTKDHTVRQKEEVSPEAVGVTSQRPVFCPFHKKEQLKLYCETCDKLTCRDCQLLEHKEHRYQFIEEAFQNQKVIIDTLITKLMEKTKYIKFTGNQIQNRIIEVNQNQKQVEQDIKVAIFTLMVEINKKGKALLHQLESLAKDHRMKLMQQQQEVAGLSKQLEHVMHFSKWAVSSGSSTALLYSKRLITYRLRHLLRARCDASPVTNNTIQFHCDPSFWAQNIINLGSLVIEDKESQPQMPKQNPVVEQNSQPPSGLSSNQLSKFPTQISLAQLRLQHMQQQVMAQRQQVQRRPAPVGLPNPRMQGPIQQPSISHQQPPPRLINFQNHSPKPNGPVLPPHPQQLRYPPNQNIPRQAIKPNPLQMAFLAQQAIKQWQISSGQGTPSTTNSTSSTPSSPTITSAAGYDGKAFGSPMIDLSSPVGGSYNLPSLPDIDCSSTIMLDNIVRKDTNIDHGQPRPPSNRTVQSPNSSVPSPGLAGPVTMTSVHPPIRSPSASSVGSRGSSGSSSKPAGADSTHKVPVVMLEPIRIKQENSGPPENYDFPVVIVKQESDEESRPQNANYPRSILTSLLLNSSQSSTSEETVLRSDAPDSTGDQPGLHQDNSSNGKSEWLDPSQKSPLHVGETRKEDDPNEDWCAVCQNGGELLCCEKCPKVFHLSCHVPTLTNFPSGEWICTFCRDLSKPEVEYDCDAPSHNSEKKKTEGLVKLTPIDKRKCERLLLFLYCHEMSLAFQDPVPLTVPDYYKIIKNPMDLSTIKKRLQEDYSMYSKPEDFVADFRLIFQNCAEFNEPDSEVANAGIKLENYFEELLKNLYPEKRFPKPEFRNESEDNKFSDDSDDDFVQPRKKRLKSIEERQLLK

[11] = molecular target: Chromatin remodeling regulator CECR2 (Homo sapiens) (UniProt Q9BXF3); experiment: Binding affinity to CECR2 (unknown origin) at 4 uM by thermal shift assay
[12] = molecular target: CREB-binding protein (Homo sapiens) (UniProt Q92793); experiment: Binding affinity to CREBBP (unknown origin) at 4 uM by thermal shift assay
Peregrin (Homo sapiens) = molecular target: T4, Peregrin (Homo sapiens) (UniProt P55201); experiment: Binding affinity to BRPF1 (unknown origin) at 4 uM by thermal shift assay
T4 sequence (whole entry): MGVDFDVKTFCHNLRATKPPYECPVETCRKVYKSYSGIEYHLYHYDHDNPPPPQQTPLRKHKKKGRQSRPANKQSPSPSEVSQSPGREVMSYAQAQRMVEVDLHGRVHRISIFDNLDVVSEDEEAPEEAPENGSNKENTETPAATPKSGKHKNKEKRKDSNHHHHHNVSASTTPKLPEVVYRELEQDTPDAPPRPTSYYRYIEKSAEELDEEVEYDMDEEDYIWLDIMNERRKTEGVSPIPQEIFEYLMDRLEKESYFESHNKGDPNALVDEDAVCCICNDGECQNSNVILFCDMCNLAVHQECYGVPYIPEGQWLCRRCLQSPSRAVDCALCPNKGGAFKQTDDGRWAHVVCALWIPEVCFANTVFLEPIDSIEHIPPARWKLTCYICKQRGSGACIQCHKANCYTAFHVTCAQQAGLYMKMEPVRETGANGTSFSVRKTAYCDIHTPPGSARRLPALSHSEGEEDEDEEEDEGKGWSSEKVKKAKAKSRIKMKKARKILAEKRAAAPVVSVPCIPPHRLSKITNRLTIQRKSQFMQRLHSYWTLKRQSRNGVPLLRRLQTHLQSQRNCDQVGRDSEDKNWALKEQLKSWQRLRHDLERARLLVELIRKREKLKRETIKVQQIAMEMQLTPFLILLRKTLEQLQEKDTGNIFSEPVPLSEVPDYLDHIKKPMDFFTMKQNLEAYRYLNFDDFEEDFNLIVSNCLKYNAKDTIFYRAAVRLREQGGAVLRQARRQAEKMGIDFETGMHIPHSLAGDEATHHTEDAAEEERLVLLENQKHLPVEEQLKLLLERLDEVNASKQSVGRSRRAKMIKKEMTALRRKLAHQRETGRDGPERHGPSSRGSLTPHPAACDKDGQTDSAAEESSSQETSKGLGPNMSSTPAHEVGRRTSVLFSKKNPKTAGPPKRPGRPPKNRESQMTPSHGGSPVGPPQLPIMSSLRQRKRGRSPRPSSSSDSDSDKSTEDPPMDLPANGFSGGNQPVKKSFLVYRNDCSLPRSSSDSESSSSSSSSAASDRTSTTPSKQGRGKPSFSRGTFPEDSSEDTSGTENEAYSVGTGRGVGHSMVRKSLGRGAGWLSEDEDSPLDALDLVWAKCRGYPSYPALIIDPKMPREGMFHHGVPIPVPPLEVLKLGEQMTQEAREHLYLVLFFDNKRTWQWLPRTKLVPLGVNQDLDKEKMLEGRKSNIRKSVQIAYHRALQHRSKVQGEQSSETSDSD

[13] = molecular target: T5, Bromodomain-containing protein 9 (Homo sapiens, UniProt Q9H8M2); experiment: Binding affinity to human recombinant biotinylated BRD9 compound treated in PBS buffer by FAC-MS analysis
T5 sequence (Q9H8M2 whole entry): T1 sequence (whole entry)

[14] = molecular target: T5, Bromodomain-containing protein 9; experiment: Binding affinity to human recombinant biotinylated BRD9 compound treated in ammonium acetate buffer by FAC-MS analysis

Chromatin remodeling regulator CECR2 (Homo sapiens), sequence (Q9BXF3 whole entry, looked up): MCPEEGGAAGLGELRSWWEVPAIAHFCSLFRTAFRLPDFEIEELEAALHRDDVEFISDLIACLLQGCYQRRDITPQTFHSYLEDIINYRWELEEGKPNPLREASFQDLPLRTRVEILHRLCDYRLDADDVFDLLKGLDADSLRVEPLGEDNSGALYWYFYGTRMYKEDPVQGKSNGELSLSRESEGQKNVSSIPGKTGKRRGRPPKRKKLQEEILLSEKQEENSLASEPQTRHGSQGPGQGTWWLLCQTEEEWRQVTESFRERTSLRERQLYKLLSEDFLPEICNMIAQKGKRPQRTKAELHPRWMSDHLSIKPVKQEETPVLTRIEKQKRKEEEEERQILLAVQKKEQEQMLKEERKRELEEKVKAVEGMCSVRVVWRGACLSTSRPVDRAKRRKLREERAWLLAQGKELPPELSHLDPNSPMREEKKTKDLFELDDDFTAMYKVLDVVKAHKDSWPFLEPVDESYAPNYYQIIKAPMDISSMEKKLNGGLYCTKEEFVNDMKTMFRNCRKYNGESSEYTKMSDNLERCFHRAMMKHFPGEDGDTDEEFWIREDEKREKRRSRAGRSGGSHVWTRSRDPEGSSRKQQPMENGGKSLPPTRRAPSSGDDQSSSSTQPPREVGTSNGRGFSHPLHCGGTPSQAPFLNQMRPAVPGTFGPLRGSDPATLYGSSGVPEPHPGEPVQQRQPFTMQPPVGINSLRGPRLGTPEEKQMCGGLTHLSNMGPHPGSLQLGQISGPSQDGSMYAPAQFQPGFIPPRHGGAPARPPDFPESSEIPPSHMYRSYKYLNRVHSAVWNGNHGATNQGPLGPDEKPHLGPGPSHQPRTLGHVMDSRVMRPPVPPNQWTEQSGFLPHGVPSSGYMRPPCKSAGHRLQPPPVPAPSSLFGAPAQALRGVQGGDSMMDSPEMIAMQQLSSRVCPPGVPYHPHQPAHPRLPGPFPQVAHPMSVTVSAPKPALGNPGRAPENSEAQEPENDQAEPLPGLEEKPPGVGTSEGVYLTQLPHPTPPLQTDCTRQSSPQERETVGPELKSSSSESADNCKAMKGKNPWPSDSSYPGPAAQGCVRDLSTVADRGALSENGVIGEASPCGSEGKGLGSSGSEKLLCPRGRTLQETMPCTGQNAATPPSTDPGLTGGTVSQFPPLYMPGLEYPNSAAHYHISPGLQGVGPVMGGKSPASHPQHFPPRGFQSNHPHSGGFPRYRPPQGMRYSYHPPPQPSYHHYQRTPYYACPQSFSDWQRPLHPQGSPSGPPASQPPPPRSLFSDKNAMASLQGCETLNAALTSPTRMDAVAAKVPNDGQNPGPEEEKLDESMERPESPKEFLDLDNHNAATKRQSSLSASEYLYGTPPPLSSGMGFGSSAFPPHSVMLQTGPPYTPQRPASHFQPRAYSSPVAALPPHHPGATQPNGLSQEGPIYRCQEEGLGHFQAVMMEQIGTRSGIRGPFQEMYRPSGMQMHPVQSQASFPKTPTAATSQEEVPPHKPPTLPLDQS
CREB-binding protein (Homo sapiens), sequence (Q92793 2-2442 limits assumed): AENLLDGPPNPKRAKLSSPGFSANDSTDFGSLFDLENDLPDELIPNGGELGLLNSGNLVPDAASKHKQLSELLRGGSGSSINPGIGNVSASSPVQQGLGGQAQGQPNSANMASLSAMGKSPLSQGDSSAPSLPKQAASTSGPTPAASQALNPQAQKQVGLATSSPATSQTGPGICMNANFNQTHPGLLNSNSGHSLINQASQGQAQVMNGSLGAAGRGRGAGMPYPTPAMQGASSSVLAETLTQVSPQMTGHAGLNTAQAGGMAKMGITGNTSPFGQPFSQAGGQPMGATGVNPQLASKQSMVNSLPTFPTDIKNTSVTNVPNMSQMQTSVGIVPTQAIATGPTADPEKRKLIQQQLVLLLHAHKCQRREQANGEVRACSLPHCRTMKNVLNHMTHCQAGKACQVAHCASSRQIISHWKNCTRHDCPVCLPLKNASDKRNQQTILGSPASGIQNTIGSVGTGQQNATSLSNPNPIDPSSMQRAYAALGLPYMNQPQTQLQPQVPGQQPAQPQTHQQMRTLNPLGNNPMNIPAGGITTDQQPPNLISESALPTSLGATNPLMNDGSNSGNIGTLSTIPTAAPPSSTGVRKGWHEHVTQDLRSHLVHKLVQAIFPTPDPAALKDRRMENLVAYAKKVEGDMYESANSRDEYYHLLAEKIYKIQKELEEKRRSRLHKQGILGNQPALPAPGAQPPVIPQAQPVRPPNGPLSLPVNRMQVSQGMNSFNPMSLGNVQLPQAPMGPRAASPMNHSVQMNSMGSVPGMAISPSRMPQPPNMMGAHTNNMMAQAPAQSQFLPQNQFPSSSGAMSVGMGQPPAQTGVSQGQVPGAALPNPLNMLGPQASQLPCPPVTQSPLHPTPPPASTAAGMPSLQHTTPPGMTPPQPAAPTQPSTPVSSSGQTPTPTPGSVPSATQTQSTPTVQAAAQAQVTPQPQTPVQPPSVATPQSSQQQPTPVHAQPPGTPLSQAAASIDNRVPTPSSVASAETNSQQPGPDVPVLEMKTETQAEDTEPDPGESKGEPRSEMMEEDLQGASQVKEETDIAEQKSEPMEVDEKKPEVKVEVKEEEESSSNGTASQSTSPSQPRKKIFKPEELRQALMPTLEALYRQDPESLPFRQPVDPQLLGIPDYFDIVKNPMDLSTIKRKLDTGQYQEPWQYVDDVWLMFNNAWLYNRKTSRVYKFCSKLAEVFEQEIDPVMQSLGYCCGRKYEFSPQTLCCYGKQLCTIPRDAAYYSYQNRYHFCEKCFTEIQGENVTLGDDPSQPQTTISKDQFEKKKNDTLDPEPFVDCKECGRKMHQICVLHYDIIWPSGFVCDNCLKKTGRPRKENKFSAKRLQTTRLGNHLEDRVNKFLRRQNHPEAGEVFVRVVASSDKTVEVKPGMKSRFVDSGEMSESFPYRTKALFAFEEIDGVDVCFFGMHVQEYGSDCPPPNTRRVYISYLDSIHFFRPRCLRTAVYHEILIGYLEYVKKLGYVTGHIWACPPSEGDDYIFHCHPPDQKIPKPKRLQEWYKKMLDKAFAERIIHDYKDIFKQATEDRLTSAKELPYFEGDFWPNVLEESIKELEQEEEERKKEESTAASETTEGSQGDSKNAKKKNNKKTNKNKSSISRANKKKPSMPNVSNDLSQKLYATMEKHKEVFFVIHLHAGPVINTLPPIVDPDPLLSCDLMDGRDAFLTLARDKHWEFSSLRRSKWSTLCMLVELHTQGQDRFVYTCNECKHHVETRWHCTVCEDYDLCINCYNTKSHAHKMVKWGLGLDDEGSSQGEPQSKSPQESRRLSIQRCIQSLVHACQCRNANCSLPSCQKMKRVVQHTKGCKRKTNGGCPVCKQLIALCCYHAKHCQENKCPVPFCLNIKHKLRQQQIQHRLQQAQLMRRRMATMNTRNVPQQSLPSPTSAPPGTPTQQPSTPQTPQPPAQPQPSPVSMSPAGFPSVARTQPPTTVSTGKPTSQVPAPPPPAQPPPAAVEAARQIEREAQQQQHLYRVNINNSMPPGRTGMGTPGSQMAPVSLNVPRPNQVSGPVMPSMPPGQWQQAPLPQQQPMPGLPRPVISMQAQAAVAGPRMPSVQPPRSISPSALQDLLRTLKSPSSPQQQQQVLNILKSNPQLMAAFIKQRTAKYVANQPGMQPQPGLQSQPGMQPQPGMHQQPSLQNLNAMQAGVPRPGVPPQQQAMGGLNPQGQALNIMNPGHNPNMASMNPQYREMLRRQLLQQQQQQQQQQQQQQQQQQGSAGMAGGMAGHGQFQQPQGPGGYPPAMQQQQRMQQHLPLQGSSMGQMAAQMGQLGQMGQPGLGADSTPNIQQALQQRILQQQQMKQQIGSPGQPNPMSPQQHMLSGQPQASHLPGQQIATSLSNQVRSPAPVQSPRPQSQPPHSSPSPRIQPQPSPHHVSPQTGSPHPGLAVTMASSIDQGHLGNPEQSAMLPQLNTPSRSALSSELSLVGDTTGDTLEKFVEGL

Row | Compound | Activity [1] [µL] | ΔTm [4] [°C] | Activity [5] | Activity [6] | Activity (Homo sapiens [7]) | Activity (Homo sapiens [8]) | Activity [9] | Activity [10] | Activity [11] | Activity [12] | Activity (Peregrin (Homo sapiens)) | also measured
1 | CCOC(=O)Nc1cc(-c2ccc(C)c(NS(C)(=O)=O)c2)nn2c(C)nnc12 | > 3600 | 8.8 | – | – | – | – | – | – | – | – | – | Activity [2]: inactive; Activity [3]: 324 µL
2 | Cc1ccc(-c2cc(N)c3nnc(C)n3n2)cc1NS(=O)(=O)c1ccccc1Cl | 784 | 2.4 | Active | Active | – | – | – | – | – | – | – | –
3 | Cc1ccc(-c2cc(N)c3nnc(C)n3n2)cc1NS(=O)(=O)c1ccc(Cl)c(Cl)c1 | 1170 | 4.3 | Active | Active | Active | – | – | – | – | – | – | –
4 | FC(F)(F)c1nnc2ccc(-c3ccccc3)nn12 | 212 | -0.6 | Active | inactive | inactive | inactive | inactive | inactive | inactive | inactive | inactive | –
5 | COc1ccc(-c2ccc3nnc(C(F)(F)F)n3n2)cc1 | 270 | 0.6 | Active | inactive | inactive | inactive | inactive | inactive | inactive | inactive | inactive | –
6 | Cc1nnc2c(N)cc(Cl)nn12 | – | – | Active | – | – | – | – | – | – | – | – | –
7 | CCOC(=O)N(c1cc(-c2cc(N)c3nnc(C)n3n2)ccc1C)S(=O)(=O)c1ccccc1Cl | – | – | Active | – | – | – | – | – | – | – | – | –
8 | CCOC(=O)N(c1cc(-c2cc(N)c3nnc(C)n3n2)ccc1C)S(=O)(=O)c1ccc(Cl)cc1 | 947 | 2.7 | Active | inactive | inactive | inactive | inactive | inactive | inactive | inactive | inactive | –
9 | Cc1ccc(-c2cc(N)c3nnc(C)n3n2)cc1NS(=O)(=O)c1cccc(Cl)c1 | – | – | Active | – | – | – | – | – | – | – | – | –
10 | Cc1nnc2c(NC(=O)OC(C)(C)C)cc(-c3ccccc3)nn12 | – | – | – | – | – | – | – | – | – | – | – | Kd [13]: 8.35 µM; Kd [14]: 8.35 µM
